The values that follow come from paper PMC10331583, “Control of fibrosis with enhanced safety via asymmetric inhibition of prolyl‐tRNA synthetase 1” (EMBO Molecular Medicine, 2023).

Data set [1] can be described thus: Pharmacokinetic study (plasma, LC-MS/MS). The format is in vivo, C57BL/6 male mice. The following applies: 3, 10 and 30 mg/kg, single dose, intravenous and oral. As to the method:
All experiments were performed according to the guidelines on the Institutional Animal Care and Use Committee of QuBEST BIO (QBIACUC‐A21112). Seven‐week‐old C57BL/6 male mice were purchased from Samtako (Osan, South Korea) and fed with regular chow and water ad libitum for 1 week before the experiments. Nine C57BL/6 mice in each group received three single ascending doses (3, 10, and 30 mg/kg) of DWN12088 formulated in normal saline intravenously and orally in fasted conditions. Post‐dosing serial blood samples were obtained using eye bleeding into heparinized capillary tubes with composite sampling (three mice per time point) at predetermined time points. The plasma was separated from the whole blood by centrifugation at 15,000 g for 2 min at 4°C, and then the proteins were precipitated using acetonitrile containing a deuterated‐labeled DWN12088 as an internal standard (IS).
The amount of DWN12088 in mouse plasma was measured by the AB Sciex ExionLC HPLC system connected to an AB Sciex 6500+ Qtrap mass spectrometer equipped with an electrospray ionization (ESI) source (AB Sciex LLC, Framingham, MA, USA). […] The gradient elution program was set as follows: 0–1 min, 10% B; 1.0–1.5 min, 10–95% B; 1.5–3.6 min, 95% B; 4.0–6.0 min, 10% B. Multiple reaction monitoring (MRM) was selected for the quantification of DWN12088 and IS in positive ion mode. […]

The next data set can be described thus: in vitro. The note with it: human, Cytotoxicity.

Structures are written as SMILES.

As to `O[C@H]1CCCN[C@@H]1CCCn1cnc2c(Cl)c(Cl)ccc21` [DWN12088], the plasma concentrations entry in data set [1] is listed as “higher at 30 mg/kg”.
For `O=C(CC1NCCCC1O)Cn1cnc2cc(Br)c(Cl)cc2c1=O` (stereo not shown) [HF, Halofuginone, reference compound], the activity at 72 h, 0.1 µM in “in vitro” (% of control (single replicates, Experiment #1-#4)) was found to be 34.2%. Moreover, in “in vitro” (% of control, average), the activity at 72 h, 0.001 µM is 101%; the activity at 72 h, 0.003 µM amounted to 107%; the activity at 72 h, 0.03 µM was 73.6%; the activity at 72 h, 0.1 µM is 42.5%. The activity at 72 h, 1 µM in “in vitro” (% of control, average) turned out to be 19.4%.
